# Legend:
# VCaP cells = assay: Cell proliferation assay (CellTiter-Glo, 5-day exposure), VCaP; format: cell-based; conditions: 4000 cells/well, Th-227 labelled at 375 kBq/nmol, mean of 1 to 6 experiments
# Method in brief: (§1)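 Thorium-227-labelled PSMA small-molecule ligands were tested on prostate cancer lines seeded at 4000 cells/well (VCaP) or 1000 cells/well (22Rv1, C4-2, LNCaP) and incubated overnight at 37 °C, 5% CO2. Viability was read by CellTiter-Glo luminescence at treatment start (sister plates) and after 5-day compound exposure.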
# C4-2 cells = assay: Cell proliferation assay (CellTiter-Glo, 5-day exposure), C4-2; format: cell-based; conditions: C4-2, 1000 cells/well, Th-227 labelled at 375 kBq/nmol, mean of 1 to 6 experiments
# Method in brief: as §1
# 22Rv1 cells = assay: Cell proliferation assay (CellTiter-Glo, 5-day exposure), 22Rv1; format: cell-based; conditions: 22Rv1, 1000 cells/well, Th-227 labelled at 375 kBq/nmol, mean of 1 to 6 experiments
# Method in brief: as §1
# [1] = test system: LNCaP human prostate cancer cells; assay: LNCaP xenograft efficacy study (T/C tumor area); format: in vivo, SCID mice
# Procedure: (§2) SCID mice were randomly assigned to experimental groups, ten animals per group (efficacy) or n=3-5 per time point of biodistribution study. At the initiation of the study, a testosterone pellet was subcutaneously transplanted, the animals were shaved, tattooed and each cage was labeled with the cage number, study number and number of animals per cage.
# (§3) LNCaP human prostate cancer cells were cultured as described according to the supplier's protocols. Cells were harvested for transplantation in a subconfluent (70%) state. Animals were injected with 5×10^6 LNCaP cells suspended in 100% Matrigel subcutaneously into the flank of the mice.
# Efficacy study: When tumors reached a predetermined size in mice of 35-50 mm^2 animals were randomized into treatment and control groups (n=10 animals/group) and treatment with the defined radioactive dose was started. The i.v. application volume was 100 μl/mice.
# Tumor response was assessed by determination of the tumor area (product of the longest diameter and its perpendicular) using a caliper. The animal body weight was monitored as a measure for treatment-related toxicity. Measurement of tumor area and body weight was performed two to three times weekly.
# Animals were sacrificed when showing signs of toxicity (>20% body weight loss) or when tumors reached a size of approximately 200 mm^2.
# Tumor growth inhibition is presented as T/C ratio (Treatment/Control) calculated with tumor areas when the vehicle control group had to be closed.
# [2] = Biodistribution study in LNCaP tumor-bearing mice (Th227 counted in organs); format: in vivo, SCID mice; conditions: 1500 kBq/kg
# Procedure: as §2, §3
# Biodistribution study: When tumors reached a predetermined size in mice of ˜50 mm^2 animals were randomized into groups (n=3 animals/time point) and the radioactive compound was once applied intravenously. The i.v. application volume was 100 μl/mice.
# At the predetermined time point, n=3 animals were sacrificed, the organs removed, weight and measured in a Germanium detector to count the Th227 in the sample.
structure (smiles),measurement,setting,value
"O=C([O-])CN1CCN(CC(=O)[O-])CCN(CC(=O)NCc2ccc(C(=O)N[C@@H](Cc3ccc4ccccc4n3)C(=O)NCCCC[C@H](NC(=O)N[C@@H](CCC(=O)O)C(=O)O)C(=O)O)nc2)CCN(CC(=O)[O-])CC1.[227Th+4] [Example 34-B-227Th, {N^6-[3-(quinolin-2-yl)-N-{5-[(2-{4,7,10-tris[(carboxy-kappaO)methyl]-1,4,7,10-tetraazacyclododecan-1-yl-kappa^4N^1,N^4,N^7,N^10}acetamido)methyl]pyridine-2-carbonyl}-L-alanyl]-N^2-{[(1S)-1,3-dicarboxypropyl]carbamoyl}-L-lysinato(4−)}(^227Th)Thorate(1−)]",Proliferation assay on cancer cell lines by TTCs Default Pivot #3 IC50 [kBq/mL] VCap 4000cells 375kBq/nmol (mean),VCaP cells,1.75 kBq/mL
same,Proliferation assay on cancer cell lines by TTCs Default Pivot #3 IC50 [kBq/mL] C4-2 1000cells 375kBq/nmol (mean),C4-2 cells,0.63 kBq/mL
same,Proliferation assay on cancer cell lines by TTCs Default Pivot #3 IC50 [kBq/mL] 22Rv1 1000cells 375kBq/nmol (mean),22Rv1 cells,0.76 kBq/mL
same,T/Carea,"[1]; Example III, day 64 after start of therapy, single treatment 1.5 MBq/kg",0.23
same,T/Carea,"[1]; Example IV, day 36 after start of therapy, once 1 MBq/kg",0.66
same,Th-227 in Blood,[2]; 0.25 h,1.78% ID Th-227/g organ
same,Th-227 in Liver,[2]; 0.25 h,1.69% ID Th-227/g organ
same,Th-227 in Spleen,[2]; 0.25 h,17.32% ID Th-227/g organ
same,Th-227 in Tumor,[2]; 0.25 h,6.33% ID Th-227/g organ
same,Th-227 in bone,[2]; 0.25 h,1.66% ID Th-227/g organ
same,Th-227 in brain,[2]; 0.25 h,0.12% ID Th-227/g organ
same,Th-227 in kidney,[2]; 0.25 h,62.53% ID Th-227/g organ
same,Th-227 in large intestine,[2]; 0.25 h,0.67% ID Th-227/g organ
same,Th-227 in lung,[2]; 0.25 h,4.04% ID Th-227/g organ
same,Th-227 in muscle,[2]; 0.25 h,1.02% ID Th-227/g organ
same,Th-227 in prostate,[2]; 0.25 h,0.00% ID Th-227/g organ
same,Th-227 in salivary glands,[2]; 0.25 h,3.14% ID Th-227/g organ
same,Th-227 in small intestine,[2]; 0.25 h,1.36% ID Th-227/g organ
same,Accumulation in the tumor (in words),[2],good and stable accumulation in the tumor
same,Th-227 in Blood,[2]; 1 hr,0.58% ID Th-227/g organ
same,Th-227 in Liver,[2]; 1 hr,0.88% ID Th-227/g organ
same,Th-227 in Spleen,[2]; 1 hr,19.69% ID Th-227/g organ
same,Th-227 in Tumor,[2]; 1 hr,9.15% ID Th-227/g organ
same,Th-227 in bone,[2]; 1 hr,1.27% ID Th-227/g organ
same,Th-227 in brain,[2]; 1 hr,0.02% ID Th-227/g organ
same,Th-227 in kidney,[2]; 1 hr,69.22% ID Th-227/g organ
same,Th-227 in large intestine,[2]; 1 hr,0.45% ID Th-227/g organ
same,Th-227 in lung,[2]; 1 hr,2.79% ID Th-227/g organ
same,Th-227 in muscle,[2]; 1 hr,0.54% ID Th-227/g organ
same,Th-227 in prostate,[2]; 1 hr,0.62% ID Th-227/g organ
same,Th-227 in salivary glands,[2]; 1 hr,1.75% ID Th-227/g organ
same,Th-227 in small intestine,[2]; 1 hr,0.64% ID Th-227/g organ
same,Th-227 in Blood,[2]; 4 hr,0.07% ID Th-227/g organ
same,Th-227 in Liver,[2]; 4 hr,0.55% ID Th-227/g organ
same,Th-227 in Spleen,[2]; 4 hr,11.57% ID Th-227/g organ
same,Th-227 in Tumor,[2]; 4 hr,7.00% ID Th-227/g organ
same,Th-227 in bone,[2]; 4 hr,1.44% ID Th-227/g organ
same,Th-227 in brain,[2]; 4 hr,0.00% ID Th-227/g organ
same,Th-227 in kidney,[2]; 4 hr,65.52% ID Th-227/g organ
same,Th-227 in large intestine,[2]; 4 hr,0.79% ID Th-227/g organ
same,Th-227 in lung,[2]; 4 hr,1.48% ID Th-227/g organ
same,Th-227 in muscle,[2]; 4 hr,0.41% ID Th-227/g organ
same,Th-227 in prostate,[2]; 4 hr,4.08% ID Th-227/g organ
same,Th-227 in salivary glands,[2]; 4 hr,1.05% ID Th-227/g organ
same,Th-227 in small intestine,[2]; 4 hr,1.13% ID Th-227/g organ
same,Th-227 in Blood,[2]; 24 h,0.01% ID Th-227/g organ
same,Th-227 in Liver,[2]; 24 h,0.23% ID Th-227/g organ
same,Th-227 in Spleen,[2]; 24 h,1.21% ID Th-227/g organ
same,Th-227 in Tumor,[2]; 24 h,10.56% ID Th-227/g organ
same,Th-227 in bone,[2]; 24 h,1.21% ID Th-227/g organ
same,Th-227 in brain,[2]; 24 h,0.00% ID Th-227/g organ
same,Th-227 in kidney,[2]; 24 h,21.02% ID Th-227/g organ
same,Th-227 in large intestine,[2]; 24 h,0.10% ID Th-227/g organ
same,Th-227 in lung,[2]; 24 h,0.27% ID Th-227/g organ
same,Th-227 in muscle,[2]; 24 h,0.00% ID Th-227/g organ
same,Th-227 in prostate,[2]; 24 h,0.00% ID Th-227/g organ
same,Th-227 in salivary glands,[2]; 24 h,0.11% ID Th-227/g organ
same,Th-227 in small intestine,[2]; 24 h,0.08% ID Th-227/g organ
same,Th-227 in Blood,[2]; 96 h,0.00% ID Th-227/g organ
same,Th-227 in Liver,[2]; 96 h,0.19% ID Th-227/g organ
same,Th-227 in Spleen,[2]; 96 h,0.43% ID Th-227/g organ
same,Th-227 in Tumor,[2]; 96 h,9.97% ID Th-227/g organ
same,Th-227 in bone,[2]; 96 h,1.08% ID Th-227/g organ
same,Th-227 in brain,[2]; 96 h,0.00% ID Th-227/g organ
same,Th-227 in kidney,[2]; 96 h,9.71% ID Th-227/g organ
same,Th-227 in large intestine,[2]; 96 h,1.44% ID Th-227/g organ
same,Th-227 in lung,[2]; 96 h,0.13% ID Th-227/g organ
same,Th-227 in muscle,[2]; 96 h,0.00% ID Th-227/g organ
same,Th-227 in prostate,[2]; 96 h,0.00% ID Th-227/g organ
same,Th-227 in salivary glands,[2]; 96 h,0.10% ID Th-227/g organ
same,Th-227 in small intestine,[2]; 96 h,0.25% ID Th-227/g organ

# Source: patent US20230072421A1, “TARGETED RADIOPHARMACEUTICALS FOR THE DIAGNOSIS AND TREATMENT OF PROSTATE CANCER” (Bayer AS, priority 2019, published 2023)
